Laboratory results taken from ChEMBL document CHEMBL3608265, “Synthesis and inhibitory activity of substrate-analog fructosyl peptide oxidase inhibitors” (Bioorg Med Chem Lett, 2015).
Activity calls are given as the source filed them. The rule behind the calls is not given here.

Assays:
[1] = Inhibition of Coniochaeta sp. FPOX-C CFP-T7 mutant using Fru-ValHis as substrate by Dixon plot analysis
Coniochaeta [2] = experiment: Competitive inhibition of Coniochaeta sp. FPOX-C CFP-T7 mutant using Fru-ValHis as substrate at 250 to 1250 uM by Lineweaver-Burk plot analysis
Coniochaeta [3] = experiment: Competitive inhibition of Coniochaeta sp. FPOX-C CFP-T7 mutant using Fru-ValHis as substrate at 5 to 25 uM by Lineweaver-Burk plot analysis
Coniochaeta [4] = experiment: Competitive inhibition of Coniochaeta sp. FPOX-C CFP-T7 mutant using Fru-ValHis as substrate at 20 to 100 uM by Lineweaver-Burk plot analysis

Compound	Ki [1]	inhibition (Coniochaeta [2])	inhibition (Coniochaeta [3])	inhibition (Coniochaeta [4])
N[C@@H](CCCCSC[C@@]1(O)OC[C@@H](O)[C@@H](O)[C@@H]1O)C(=O)O	782 µM	Active	–	–
CC(C)[C@H](SC[C@@]1(O)OC[C@@H](O)[C@@H](O)[C@@H]1O)C(=O)O	11.1 µM	–	Active	–
CC(C)[C@H](SC[C@@]1(O)OC[C@@H](O)[C@@H](O)[C@@H]1O)C(=O)N[C@@H](Cc1c[nH]cn1)C(=O)O	66.8 µM	–	–	Active
